{"source": "paper PMC7351026", "about": "“Serum Half-Lives for Short- and Long-Chain Perfluoroalkyl Acids after Ceasing Exposure from Drinking Water Contaminated by Firefighting Foam” (Environmental Health Perspectives, 2020)", "key": {"[1]": {"test": "PFAS levels in urine samples of airport employees, specific-gravity adjusted (LC/MS/MS)", "type": "in vivo, human", "procedure,_shortened": "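50 μL urine mixed with methanol and acetonitrile containing isotope-labelled internal standards, shaken 30 min, centrifuged, then analysed by LC/MS/MS in negative ion mode. Concentrations specific-gravity adjusted; urine/serum ratios from paired samples of 17 employees, averaged over repeated samplings per employee.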"}, "[2]": {"test": "Population average serum elimination rate and half-life (linear mixed model, one compartment, first-order)", "conditions": "for Constant elimination rate (95% CI) / Half-life (95% CI): population average", "procedure,_shortened": "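Log-transformed serum PFAS fitted with a linear mixed model (random intercept only; age and sex as covariates), assuming one-compartment first-order elimination. Time counted in days from clean-water supply to first sampling. k is the negative average slope; half-life = ln2/k; sensitivity run after subtracting reference-population median background.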"}, "[3]": {"test": "Individual serum elimination rate and half-life (linear regression per employee)", "conditions": "individual estimate", "procedure,_shortened": "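One-compartment, first-order model: for each employee and PFAS, the slope β of log serum concentration versus elapsed days (from clean water supply, over five samplings) gave k = −β and half-life = ln2/k. A positive slope left the half-life undetermined.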"}, "[4]": {"test": "Serum/water ratio", "type": "in vivo, human", "conditions": "median serum level of first samples (26 employees) divided by airport drinking-water level", "experimental": "The ratio of serum and water concentration for each PFAS (serum/water ratio) was calculated based on median serum level in the first serum sample obtained from all 26 airport employees divided by the drinking-water concentration. This ratio is an indicator of PFAS accumulation in body."}, "[5]": {"test": "Urine/serum ratio in paired samples", "type": "in vivo, human", "experimental": "Urinary PFAS concentrations were specific-gravity adjusted. The ratio of urine and serum concentration for each PFAS (urine/serum ratio) at each sampling was calculated based on PFAS concentrations in paired serum and urine samples from 17 employees. Then the personal average urine/serum ratio was calculated using the mean value of repeated samplings for each employee."}, "[6]": {"conditions": "highly exposed general population from Ronneby, Sweden, 108 Swedes, 5 y follow-up; ref Li et al. 2019; cited from earlier work"}, "[7]": {"conditions": "2nd sampling (October 2018), count 17"}, "[8]": {"conditions": "3rd sampling (November, 2018), count 16"}, "[9]": {"conditions": "4th sampling (December 2018), count 14"}, "[10]": {"conditions": "5th sampling (January 2019), count 12"}, "[11]": {"conditions": "model with original serum levels, age and sex as covariates"}, "[12]": {"conditions": "model with serum levels after subtraction of background exposure (sensitivity analysis)"}}}
{"smiles": "O=S(=O)(O)C(F)(F)C(F)(F)C(F)(F)C(F)(F)C(F)(F)F", "note": "[PFPeS, perfluoropentane sulfonic acid]", "values": [{"measurement": "Specific gravity adjusted urinary level, 25 percentile", "setting": "[1]; [7]", "result": 0.06, "unit": "ng/mL"}, {"measurement": "Specific gravity adjusted urinary level, 75 percentile", "setting": "[1]; [7]", "result": 0.08, "unit": "ng/mL"}, {"measurement": "Specific gravity adjusted urinary level, Max", "setting": "[1]; [7]", "result": 0.11, "unit": "ng/mL"}, {"measurement": "Specific gravity adjusted urinary level, Median", "setting": "[1]; [7]", "result": 0.07, "unit": "ng/mL"}, {"measurement": "Specific gravity adjusted urinary level, Min", "setting": "[1]; [7]", "result": 0.04, "unit": "ng/mL"}, {"measurement": "Specific gravity adjusted urinary level, 25 percentile", "setting": "[1]; [8]", "result": 0.05, "unit": "ng/mL"}, {"measurement": "Specific gravity adjusted urinary level, 75 percentile", "setting": "[1]; [8]", "result": 0.09, "unit": "ng/mL"}, {"measurement": "Specific gravity adjusted urinary level, Max", "setting": "[1]; [8]", "result": 0.12, "unit": "ng/mL"}, {"measurement": "Specific gravity adjusted urinary level, Median", "setting": "[1]; [8]", "result": 0.07, "unit": "ng/mL"}, {"measurement": "Specific gravity adjusted urinary level, Min", "setting": "[1]; [8]", "result": 0.02, "unit": "ng/mL"}, {"measurement": "Specific gravity adjusted urinary level, 25 percentile", "setting": "[1]; [9]", "result": 0.07, "unit": "ng/mL"}, {"measurement": "Specific gravity adjusted urinary level, 75 percentile", "setting": "[1]; [9]", "result": 0.08, "unit": "ng/mL"}, {"measurement": "Specific gravity adjusted urinary level, Max", "setting": "[1]; [9]", "result": 0.12, "unit": "ng/mL"}, {"measurement": "Specific gravity adjusted urinary level, Median", "setting": "[1]; [9]", "result": 0.08, "unit": "ng/mL"}, {"measurement": "Specific gravity adjusted urinary level, Min", "setting": "[1]; [9]", "result": 0.03, "unit": "ng/mL"}, {"measurement": "Specific gravity adjusted urinary level, 25 percentile", "setting": "[1]; [10]", "result": 0.06, "unit": "ng/mL"}, {"measurement": "Specific gravity adjusted urinary level, 75 percentile", "setting": "[1]; [10]", "result": 0.08, "unit": "ng/mL"}, {"measurement": "Specific gravity adjusted urinary level, Max", "setting": "[1]; [10]", "result": 0.09, "unit": "ng/mL"}, {"measurement": "Specific gravity adjusted urinary level, Median", "setting": "[1]; [10]", "result": 0.07, "unit": "ng/mL"}, {"measurement": "Specific gravity adjusted urinary level, Min", "setting": "[1]; [10]", "result": 0.05, "unit": "ng/mL"}, {"measurement": "Specific gravity adjusted urine level, median (range)", "setting": "[1]; second to fifth samplings, 17 airport employees", "result": "0.072 (0.021–0.12) ng/mL"}, {"measurement": "Half-life shorter than L-PFOS", "setting": "[2]; human, in vivo", "result": 4, "unit": "times"}, {"measurement": "Constant elimination rate (95% CI)", "setting": "[2]; [11]", "result": "1.1 (0.68, 1.51) yearly"}, {"measurement": "Half-life (95% CI)", "setting": "[2]; [11]", "result": "0.63 (0.46, 1.01) year"}, {"measurement": "Constant elimination rate (95% CI)", "setting": "[2]; [12]", "result": "1.1 (0.68, 1.52) yearly"}, {"measurement": "Half-life (95% CI)", "setting": "[2]; [12]", "result": "0.63 (0.46, 1.01) year"}, {"measurement": "Elimination rate", "setting": "[3]; subject 1, 5 samples", "result": 0.7, "unit": "yearly"}, {"measurement": "HL (half-life)", "setting": "[3]; subject 1, 5 samples", "result": 1.0, "unit": "year"}, {"measurement": "Elimination rate", "setting": "[3]; subject 2, 5 samples", "result": 0.6, "unit": "yearly"}, {"measurement": "HL (half-life)", "setting": "[3]; subject 2, 5 samples", "result": 1.2, "unit": "year"}, {"measurement": "Elimination rate", "setting": "[3]; subject 3, 5 samples", "result": 0.7, "unit": "yearly"}, {"measurement": "HL (half-life)", "setting": "[3]; subject 3, 5 samples", "result": 0.9, "unit": "year"}, {"measurement": "Elimination rate", "setting": "[3]; subject 4, 5 samples", "result": 0.8, "unit": "yearly"}, {"measurement": "HL (half-life)", "setting": "[3]; subject 4, 5 samples", "result": 0.8, "unit": "year"}, {"measurement": "Elimination rate", "setting": "[3]; subject 5, 5 samples", "result": 0.4, "unit": "yearly"}, {"measurement": "HL (half-life)", "setting": "[3]; subject 5, 5 samples", "result": 1.7, "unit": "year"}, {"measurement": "Elimination rate", "setting": "[3]; subject 6, 4 samples", "result": 0.9, "unit": "yearly"}, {"measurement": "HL (half-life)", "setting": "[3]; subject 6, 4 samples", "result": 0.7, "unit": "year"}, {"measurement": "Elimination rate", "setting": "[3]; subject 7, 5 samples", "result": 0.7, "unit": "yearly"}, {"measurement": "HL (half-life)", "setting": "[3]; subject 7, 5 samples", "result": 0.9, "unit": "year"}, {"measurement": "Elimination rate", "setting": "[3]; subject 8, 5 samples", "result": 0.5, "unit": "yearly"}, {"measurement": "HL (half-life)", "setting": "[3]; subject 8, 5 samples", "result": 1.4, "unit": "year"}, {"measurement": "Elimination rate", "setting": "[3]; subject 9, 5 samples", "result": 0.7, "unit": "yearly"}, {"measurement": "HL (half-life)", "setting": "[3]; subject 9, 5 samples", "result": 1.0, "unit": "year"}, {"measurement": "Elimination rate", "setting": "[3]; subject 10, 5 samples", "result": 0.6, "unit": "yearly"}, {"measurement": "HL (half-life)", "setting": "[3]; subject 10, 5 samples", "result": 1.2, "unit": "year"}, {"measurement": "Elimination rate", "setting": "[3]; subject 11, 5 samples", "result": 2.0, "unit": "yearly"}, {"measurement": "HL (half-life)", "setting": "[3]; subject 11, 5 samples", "result": 0.3, "unit": "year"}, {"measurement": "Elimination rate", "setting": "[3]; subject 12, 5 samples", "result": 1.1, "unit": "yearly"}, {"measurement": "HL (half-life)", "setting": "[3]; subject 12, 5 samples", "result": 0.6, "unit": "year"}, {"measurement": "Elimination rate", "setting": "[3]; subject 13, 5 samples", "result": 0.8, "unit": "yearly"}, {"measurement": "HL (half-life)", "setting": "[3]; subject 13, 5 samples", "result": 0.9, "unit": "year"}, {"measurement": "Elimination rate", "setting": "[3]; subject 14, 4 samples", "result": 1.2, "unit": "yearly"}, {"measurement": "HL (half-life)", "setting": "[3]; subject 14, 4 samples", "result": 0.6, "unit": "year"}, {"measurement": "Elimination rate", "setting": "[3]; subject 15, 5 samples", "result": 2.5, "unit": "yearly"}, {"measurement": "HL (half-life)", "setting": "[3]; subject 15, 5 samples", "result": 0.3, "unit": "year"}, {"measurement": "Elimination rate", "setting": "[3]; subject 16, 5 samples", "result": 0.4, "unit": "yearly"}, {"measurement": "HL (half-life)", "setting": "[3]; subject 16, 5 samples", "result": 1.6, "unit": "year"}, {"measurement": "Elimination rate", "setting": "[3]; subject 17, 5 samples", "result": 2.4, "unit": "yearly"}, {"measurement": "HL (half-life)", "setting": "[3]; subject 17, 5 samples", "result": 0.3, "unit": "year"}, {"measurement": "Serum/water ratio", "setting": "[4]", "result": 38.3}, {"measurement": "Urine/serum ratio higher than L-PFOS", "setting": "[5]; in vivo", "result": 10, "unit": "times"}, {"measurement": "Personal average urine/serum ratio, median (range)", "setting": "[5]; mean of four paired samplings per subject, 17 airport employees", "result": "0.0089 (0.0057–0.026)"}, {"measurement": "Average half-life", "setting": "[6]", "result": 1.0, "unit": "y"}]}
